Read-outs that look alike come from different tables or passages of the source.
Assays:
[1] = target: σ receptors labelled by [^3H]DTG (σ1 + σ2); assay: Sigma receptor binding assay, [3H]DTG; details: read-out: IC50 ± SEM [^3H]DTG (σ1 + σ2); guinea pig brain membranes; compounds 1-5 tested up to 10 µM
Description: (§1) Filters were washed three times with 5 ml of ice-cold 10 mM Tris-HCI buffer (pH 8). The bound radioactivity was measured by liquid scintillation counting (Beckman Coulter™ LS6500). […] The values are expressed as the mean ± S.E.M of 2 - 4 independent experiments, each performed in duplicate.

k opioid receptors = target: T1, k opioid receptors (Cavia porcellus, UniProt P41144); assay: Opioid receptor binding assay, [3H]U69,593, guinea pig brain membranes
T1 construct: Membrane fractions were prepared from Sprague-Dawley rat or guinea pig brains; from tissue; host or cells: guinea pig brain (without cerebella) membranes
Description: (§2) Briefly, brains without cerebella were homogenised on ice in 5 volumes of ice-cold 50 mM Tris-HCI buffer (pH 7.4) and diluted in 30 volumes of the same buffer. After centrifugation at 40,000 x g for 20 min at 4°C, the pellets were resuspended in 30 volumes of Tris-HCI buffer and incubated at 37 °C for 30 min (rat brain) or for 10 min (guinea pig brain). The centrifugation step was repeated and the final pellets were resuspended in 5 volumes of 50 mM Tris-HCI buffer (pH 7.4) containing 0.32 M sucrose to give a protein concentration of 4 - 6 mg/ml. Protein concentration was determined by the method of Bradford using bovine serum albumin as standard.
(§3) Binding experiments were performed in 50 mM Tris-HCI buffer (pH 7.4) in a final volume of 1 ml containing 0.3 - 0.5 mg protein and different concentrations of the compounds. […] Guinea pig brain membranes were incubated with [^3H]U69,593 (30 min, 30 °C). Non-specific binding was determined in the presence of 10 µM unlabeled naloxone. […] Inhibition constant (Ki) values were calculated from competition binding curves using GraphPad Prism (San Diego, CA, USA) program. The values are expressed as the mean ± S.E.M of 2-4 independent experiments, each performed in duplicate.
(§4) The morphinan-6-one compounds of the present invention were evaluated in in vitro receptor binding assays for their interaction abilities with µ, δ and k opioid receptors. […] The affinities of the compounds at k opioid receptors were determined by displacement of [^3H]U69,593 using guinea pig brain membranes.

µ opioid receptor [2] = target: T2, µ opioid receptor (Rattus norvegicus, UniProt P33535); assay: Opioid receptor binding assay, [3H]DAMGO, rat brain membranes; design: Membrane fractions were prepared from Sprague-Dawley rat or guinea pig brains; from tissue; host or cells: Sprague-Dawley rat brain (without cerebella) membranes; species or system Sprague-Dawley rat
Description: as §2, §3, §4

δ opioid receptors = target: T3, δ opioid receptors (Rattus norvegicus, UniProt P33533); assay: Opioid receptor binding assay, [3H][Ile5,6]deltorphin II, rat brain membranes; design: species or system Sprague-Dawley rat
T3 construct: Membrane fractions were prepared from Sprague-Dawley rat or guinea pig brains; from tissue; host or cells: Sprague-Dawley rat brain (without cerebella) membranes
Description: as §2, §3, §4

µ opioid receptor [3] = target: T2, µ opioid receptor; assay: [35S]GTPγS functional assay, rat brain membranes, µ receptor; format: biochemical, Sprague-Dawley rat; design: Membrane fractions were prepared from Sprague-Dawley rat or guinea pig brains; from tissue; host or cells: Sprague-Dawley rat brain (without cerebella) membranes
Description: (§5) Membrane fractions were prepared from Sprague-Dawley rat or guinea pig brains as described above. To determine binding of [^35S]GTPyS, rat or guinea pig brain membranes (10 µg of protein) were incubated for 60 min at 30 °C in Tris-EGTA buffer (50 mM Tris-HCl buffer, 3 mM MgCl2, 1 mM EGTA, […], pH 7.4) containing 30 µM GDP, 0.05 nM [^35S]GTPyS and appropriate concentrations of the respective compounds according to the present invention in a final volume of 1 ml. The reaction was terminated by vacuum filtration through Whatman GF/B glass fibre filters. Filters were washed three times with ice-cold 50 mM Tris-HCI buffer (pH 7.4) and the bound radioactivity was measured by liquid scintillation counting (Beckman Coulter™ LS6500). Basal activity was determined by subtracting the non-specific binding (measured in the presence of 100 µM unlabelled GTPyS) from the total binding (measured in the absence of the compound).
(§6) Stimulation produced by the compound is given as percentage of the basal activity (given as 100%). Functional data, EC50 (nM; half maximal effective concentration) and maximal stimulation Emax (% stimulation over basal level; maximal effective concentration), were calculated by using nonlinear regression analysis and sigmoidal curve fitting GraphPad Prism (San Diego, CA, USA) program. The values are expressed as the mean ± S.E.M of at least 3 independent experiments, each performed in triplicate. Statistical analysis was carried out using SPSS software (SPSS Inc., Chicago, lL, USA) and the Student T-test was used to compare different assay conditions. A ρ value < 0.05 was considered statistically significant.

[4] = target: T4, σ receptors labelled by [^3H](+)-pentazocine (σ1) (Cavia porcellus, UniProt Q60492); assay: Sigma receptor binding assay, [3H](+)-pentazocine; design: species or system guinea pig
T4 construct: from tissue; host or cells: guinea pig brain membranes
Description: as §1

[5] = system: extracellular ACh concentration in the nucleus accumbens; details: for 0AUC120 min (% increase x min) Mean ± SEM: 0 to 120 min; for Increase in ACh release (Peak increase as % of basal output): nucleus accumbens
[6] = target: T5, electric eel AChE (EC 3.1.1.7) (Electrophorus electricus, UniProt O42275); assay: Spectrophotometric assay for AChE inhibitory activity (modified Ellman's method); format: biochemical; details: 96-well microplate, 1% DMSO; read-out: AChE inhibitory activity IC50
T5 construct: purchased Sigma-Aldrich, Germany

[7] = system: frontal cortex synaptosomes; assay: ACh release from synaptosomes (15 mM K+-evoked [3H]-ACh release, superfusion); format: cell-based, male Sprague Dawley rats; details: 15 mM K+
Description: Preparation of synaptosomes: synaptosomes were prepared from brain frontal cortex of male Sprague Dawley rats (4 months old). The frontal cortex was rapidly dissected on ice and homogenized in 40 volumes of 0.32 M sucrose buffered at pH 7.4 with 0.01 M sodium phosphate. The homogenate was centrifuged at 1,000 g for 5 min. The crude synaptosomal pellet was obtained by centrifugation of the supernatant at 15,000 g for 20 min and was resuspended in 5 ml basal medium (125 mM Nacl, 3 mM KCI, 1.2 mM MgS04, 1.2 mM CaCl2, 1.0 mM NaH2PO4, 22 mM NaHCO3 and 10 mM glucose) which had been gassed with 95% O2 - 5% CO2 at 37 °C, pH 7.2 - 7.4.
Superfusion protocol: The synaptosomal suspension was incubated with [^3H]-choline (0.03 µM, 17.5x10^6 Bq/g) for 15 min at 37 °C. Then, the suspension was diluted (1:8) and aliquots were applied on filters in a continuous superfusion system with parallel chambers maintained at 37 °C. The media used for superfusion were basal medium and 15 mM K^+-containing stimulation medium. Both media were supplemented with ACh (1 µM) to facilitate the effectiveness of an allosteric potentiating ligand at the nicotine receptor and with atropine (0.1 µM) to block M2 presynaptic receptors. Synaptosomes were superfused with basal medium for 30 min to reach a constant outflow of [^3H]-ACh. Under these experimental conditions, the radioactivity released consisted largely of newly synthesized [^3H]-ACh. The K^+-stimulated release of [^3H]-ACh was determined in 2 subsequently collected fractions: 6 min basal release (superfusion with basal medium) and 6 min K^+-evoked release (superfusion for 1.5 min with 15 mM K^+-containing medium followed by […] basal medium). The test compounds galantamine, 4 and 2 were present in the superfusion medium concomitantly with 15 mM K^+ (for 1.5 min). Basal release of [^3H]-ACh (continuous superfusion with basal medium) was determined by collection of a 6 min sample followed by four subsequent 2 min samples. Aliquots of samples were mixed with scintillation liquid and the radioactivity quantified with a scintillation counter. The radioactivity bound to the filters was also measured.
Statistical analysis: The amount of [^3H]-ACh released in each sample was calculated as fraction of total synaptosomal tritium at the start of the respective collection period (tritium in the sample / sum of tritium in the respective fractions and in the synaptosomes on the filter). K^+-evoked release was expressed as percentage of basal release rate. Each n=1 represents the mean of an experiment with one synaptosomal preparation in at least 3 superfusion chambers. Statistical significance of group variances was calculated by one way ANOVA followed by Bonferroni's test.

K receptor = target: T6, K receptor (Cavia porcellus, UniProt P41144); format: biochemical, guinea pig
T6 construct: Membrane fractions were prepared from Sprague-Dawley rat or guinea pig brains; from tissue; host or cells: guinea pig brain (without cerebella) membranes

δ receptor = target: T7, δ receptor (Rattus norvegicus, UniProt P33533); assay: [35S]GTPγS functional assay, rat brain membranes, δ receptor; format: biochemical, Sprague-Dawley rat
T7 construct: Membrane fractions were prepared from Sprague-Dawley rat or guinea pig brains; from tissue; host or cells: Sprague-Dawley rat brain (without cerebella) membranes
Description: as §5, §6

C57BL/6N female mice [8] = assay: T-maze continuous alternation; details: normal mice
C57BL/6N female mice [9] = assay: Object recognition task; details: normal mice, 0.03 µmol i.c.v.

T1 sequence (P41144 whole entry): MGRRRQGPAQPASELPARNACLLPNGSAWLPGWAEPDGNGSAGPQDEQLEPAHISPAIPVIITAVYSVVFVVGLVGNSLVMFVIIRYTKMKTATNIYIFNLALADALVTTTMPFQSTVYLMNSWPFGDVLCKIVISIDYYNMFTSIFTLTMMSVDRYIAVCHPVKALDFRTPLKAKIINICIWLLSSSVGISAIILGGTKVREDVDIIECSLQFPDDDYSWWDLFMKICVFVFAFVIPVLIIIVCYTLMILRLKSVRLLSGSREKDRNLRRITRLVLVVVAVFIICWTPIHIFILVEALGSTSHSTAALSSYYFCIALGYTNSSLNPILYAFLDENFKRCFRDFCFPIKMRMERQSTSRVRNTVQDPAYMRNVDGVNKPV
T2 sequence (P33535 whole entry): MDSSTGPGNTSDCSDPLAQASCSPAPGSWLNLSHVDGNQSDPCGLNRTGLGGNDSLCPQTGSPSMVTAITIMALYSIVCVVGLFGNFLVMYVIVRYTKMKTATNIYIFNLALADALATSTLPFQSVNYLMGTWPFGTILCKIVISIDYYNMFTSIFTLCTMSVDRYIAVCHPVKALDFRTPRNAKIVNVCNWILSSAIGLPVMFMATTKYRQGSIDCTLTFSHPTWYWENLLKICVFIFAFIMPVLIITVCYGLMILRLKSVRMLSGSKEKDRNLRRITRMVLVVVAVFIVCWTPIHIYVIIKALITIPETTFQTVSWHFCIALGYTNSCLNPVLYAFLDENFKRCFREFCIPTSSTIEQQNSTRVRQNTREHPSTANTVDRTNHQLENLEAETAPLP
T3 sequence (P33533 whole entry): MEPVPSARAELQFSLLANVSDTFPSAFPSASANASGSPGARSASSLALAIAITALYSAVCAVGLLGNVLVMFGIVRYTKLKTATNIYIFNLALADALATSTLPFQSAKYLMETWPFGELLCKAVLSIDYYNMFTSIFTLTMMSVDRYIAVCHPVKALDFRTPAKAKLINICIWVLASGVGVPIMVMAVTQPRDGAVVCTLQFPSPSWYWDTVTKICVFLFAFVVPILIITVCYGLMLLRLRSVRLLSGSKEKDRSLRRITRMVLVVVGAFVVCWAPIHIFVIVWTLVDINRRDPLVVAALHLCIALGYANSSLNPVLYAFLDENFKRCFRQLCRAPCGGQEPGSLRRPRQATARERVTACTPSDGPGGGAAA
T4 sequence (Q60492 whole entry): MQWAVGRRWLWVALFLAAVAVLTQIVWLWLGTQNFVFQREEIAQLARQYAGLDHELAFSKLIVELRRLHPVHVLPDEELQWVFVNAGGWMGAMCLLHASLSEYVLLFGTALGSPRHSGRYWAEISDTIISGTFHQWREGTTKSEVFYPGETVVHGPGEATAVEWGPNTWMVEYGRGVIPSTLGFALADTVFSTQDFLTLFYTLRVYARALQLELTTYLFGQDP
T7 sequence (P33533 whole entry): as the sequence (P33533 whole entry) above
T6 sequence (P41144 whole entry): as the sequence (P41144 whole entry) above
T5 sequence (O42275 24-633): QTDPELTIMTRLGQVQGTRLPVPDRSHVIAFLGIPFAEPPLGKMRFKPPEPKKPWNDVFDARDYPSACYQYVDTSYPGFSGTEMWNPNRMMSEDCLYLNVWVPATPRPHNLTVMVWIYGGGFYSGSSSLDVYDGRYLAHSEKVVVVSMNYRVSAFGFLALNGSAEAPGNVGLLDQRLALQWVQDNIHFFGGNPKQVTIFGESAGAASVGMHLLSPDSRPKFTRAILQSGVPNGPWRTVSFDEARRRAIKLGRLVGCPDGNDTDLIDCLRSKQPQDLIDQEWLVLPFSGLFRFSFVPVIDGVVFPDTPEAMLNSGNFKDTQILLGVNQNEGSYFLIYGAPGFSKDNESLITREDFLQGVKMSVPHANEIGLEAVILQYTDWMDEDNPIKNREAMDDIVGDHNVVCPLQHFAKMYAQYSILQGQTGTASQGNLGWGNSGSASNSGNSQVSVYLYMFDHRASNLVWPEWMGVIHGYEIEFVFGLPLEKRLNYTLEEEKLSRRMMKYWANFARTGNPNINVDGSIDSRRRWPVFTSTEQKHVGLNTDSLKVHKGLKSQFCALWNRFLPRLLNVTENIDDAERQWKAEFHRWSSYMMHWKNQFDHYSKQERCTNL

CC(C)=CCN1CCC2(C)c3cc(O)ccc3CC1C2C (racemic) [(±)Pentazocine, reference compound]
IC50 [1]: 0.0546 ± 0.0053 µM

O=CN1CC[C@]23CC(=O)CC[C@H]2[C@H]1CC1=C3C(=O)C=CC1=O [1,4-dione-N-formylmorphinan-6-one]
binding to opioid receptor K (in words) (k opioid receptors): does not bind | binding to opioid receptor µ (in words) (µ opioid receptor [2]): does not bind | binding to opioid receptor δ (in words) (δ opioid receptors): does not bind

O=CN1CC[C@]23c4c5cccc4OC2C(=O)CC[C@H]3[C@H]1C5 (stereo partly drawn) [4,5-epoxy-N-formylmorphinan-6-one]
binding to opioid receptor K (in words) (k opioid receptors): does not bind | binding to opioid receptor µ (in words) (µ opioid receptor [2]): does not bind | binding to opioid receptor δ (in words) (δ opioid receptors): does not bind

C=CCN1CC[C@]23CC(=O)CC[C@@]2(OC)[C@H]1Cc1cccc(OC)c13 [4,14-dimethoxy-N-allyl-morphinan-6-one]
function at the µ opioid receptor (µ opioid receptor [3]): antagonistic function

CCCN1CCC[C@H](c2cccc(O)c2)C1 [(+)-3-PPP, reference compound]
IC50 [4]: 0.0682 ± 0.0048 µM

C=CCN1CC[C@]2(C)c3cc(O)ccc3C[C@H]1[C@H]2C [(+)-SKF-10,047, reference compound]
IC50 [1]: 0.291 ± 0.014 µM

O=CN1CC[C@]23CC(=O)CC[C@H]2[C@H]1CC1=C3C(=O)C=CC1=O [Compound 2, 1,4-dione-N-formylmorphinan-6-one]
IC50 [4]: > 10 µM | Ki (k opioid receptors; [3H]U69,593, guinea pig brain membranes, read-out: Opioid binding affinities Ki κ receptor): > 10 µM | Ki (k opioid receptors; no specific binding, read-out: Ki, k opioid receptor): > 10 µM | effect on ACh in the superfusate (in words) ([5]; 0.5 µmol i.c.v.): short increase in ACh concentration followed by a decrease | toxicity at higher doses ([5]; 1 µmol and above, i.c.v., anaesthetized rats): could not be tested because of toxicity | 0AUC120 min (% increase x min) Mean ± SEM ([5]; Dose 0.5 µmol i.c.v.): 98 ± 27 % increase x min | Increase in ACh release (Peak increase as % of basal output) ([5]; Dose 0.5 µmol i.c.v.): 57 ± 14 % | IC50 [1]: > 0.01 µM | Ki (µ opioid receptor [2]; [3H]DAMGO, rat brain membranes, read-out: Opioid binding affinities Ki µ receptor): > 10 µM | Ki (µ opioid receptor [2]; no specific binding, read-out: Ki, µ opioid receptor): > 10 µM | Ki (δ opioid receptors; [3H][Ile5,6]deltorphin II, rat brain membranes, read-out: Opioid binding affinities Ki δ receptor): > 10 µM | Ki (δ opioid receptors; no specific binding, read-out: Ki, δ opioid receptor): > 10 µM | IC50 [6]: 12.7 µM

Cc1ccccc1NC(=N)Nc1ccccc1C [DTG, reference compound]
IC50 [1]: 0.126 ± 0.005 µM

COc1ccc2c3c1O[C@H]1C[C@@H](O)C=C[C@@]31CCN(C)C2 [Galantamine, galantamine, reference compound]
0AUC120 min (% increase x min) Mean ± SEM ([5]; Dose 0.5 µmol i.c.v.): 642 ± 85 % increase x min | Increase in ACh release (Peak increase as % of basal output) ([5]; Dose 0.5 µmol i.c.v.): 118 ± 29 % | 0AUC120 min (% increase x min) Mean ± SEM ([5]; Dose 1 µmol i.c.v.): 1857 ± 173 % increase x min | Increase in ACh release (Peak increase as % of basal output) ([5]; Dose 1 µmol i.c.v.): 101 ± 42 % | concentration of maximal effect on stimulation-evoked ACh release [7]: 1 µM

Oc1ccc2c3c1O[C@H]1c4[nH]c5c(c4C[C@@]4(O)[C@@H](C2)N(CC2CC2)CC[C@]314)C[C@@]1(O)[C@H]2Cc3ccc(O)c4c3[C@@]1(CCN2CC1CC1)[C@H]5O4 [Nor-BNI, reference compound]
effect on [35S]GTPγS binding stimulated by U69,593 (K receptor): highly effective in inhibiting

C=CCN1C[C@H](C)N([C@H](c2ccc(C(=O)N(CC)CC)cc2)c2cccc(OC)c2)C[C@H]1C [SNC 80, reference compound]
Emax (δ receptor; data not shown, read-out: Emax (% of basal activity)): 137 ± 4%

CN1[C@@H]2C[C@@H](OC(=O)[C@H](CO)c3ccccc3)C[C@H]1[C@@H]1O[C@@H]12 [Scopolamine, scopolamine, reference compound]
running time (C57BL/6N female mice [8]; 0.033 µmol): only a moderate increase | spontaneous alternation (C57BL/6N female mice [8]; 0.033 µmol): profound decrease | running time (C57BL/6N female mice [8]; dose series, bell-shaped curve, not shown): strong increase | spontaneous alternation (C57BL/6N female mice [8]; dose series, not shown): dose-dependent reduction | object recognition, exploration ratio novel/familiar object (C57BL/6N female mice [9]): close to one

Nc1c2c(nc3ccccc13)CCCC2 [Tacrine, tacrine, reference compound]
dose dependence of the increase in extracellular brain ACh ([5]; rat, in vivo): pronounced and dose-dependent increases

COc1cccc2c1[C@]13CCN(CC4CC4)[C@H](C2)[C@]1(OC)CCC(=O)C3 [cyprodime, reference compound]
effect on [35S]GTPγS binding stimulated by DAMGO (µ opioid receptor [3]; compound 10 µM, DAMGO 10 µM, rat brain membranes): significantly decreased

Oc1ccc2c3c1O[C@H]1c4[nH]c5ccccc5c4C[C@@]4(O)[C@@H](C2)N(CC2CC2)CC[C@]314 [naltrindole, reference compound]
effect on [35S]GTPγS binding stimulated by SNC 80 (δ receptor; compound 10 µM, SNC 80 10 µM): markedly decreased

Reference: patent EP2340832A1, “Morphinan-6-one compounds for the treatment or prevention of neurodegenerative diseases” (Universität Innsbruck, priority 2009, dated 2011)
